Test results reported in patent publication US7781480B2, “Indole derivatives and their metal conjugates and uses thereof” (VLife Sciences Technologies Pvt. Ltd., priority 2007, dated 2010).

Assays:
[1] = test system: COLO 357 cells (K-ras mutated pancreatic cancer); test: MTT cell growth inhibition assay, COLO357; type: cell-based; conditions: COLO357, 72 h; read-out: MTT Assay EC50 after 72 h
Procedure: (§1) COLO 357 cells (K-ras mutated pancreatic cancer) were seeded at a density of 3×10^3 cells per well in 96-well microtiter culture plates. After overnight incubation, medium was removed and replaced with fresh medium containing different concentrations of compounds (0-100 μmol/L) diluted from a 10 mmol/L stock. On completion of 72 hours of incubation, 20 μL of 3-(4,5-dimethylthiazol-2-yl)-2,5-diphenyltetrazolium bromide (MTT) solution (5 mg/mL in PBS) were added to each well and incubated further for 2 hours. Upon termination, the supernatant was aspirated and the MTT formazan formed by metabolically viable cells was dissolved in 100 μL of isopropanol. The plates were mixed for 30 minutes on a gyratory shaker, and absorbance was measured at 595 nm using a plate reader (TECAN, Durham, N.C.). A similar protocol was used for BxPC3 (wild type K-Ras pancreatic cancer), PC3 (prostate cancer) and HCT (colon cancer) cell lines.
(§2) Cells were plated as described above and allowed to attach overnight. The cells were replaced with fresh medium containing 25 μmol/L of Compound 1 and Compound 2 for 72 hours. The effect of Compound 1 and Compound 2 pretreatment on cell viability was examined by the MTT assay method as described above.

[2] = test system: BxPC3 (wild type K-Ras pancreatic cancer); test: MTT cell growth inhibition assay, BxPC3; type: cell-based; conditions: BxPC3, 72 h; read-out: MTT Assay EC50 after 72 h
Procedure: as §1, §2

PC3 = test: Quantification of apoptosis by ELISA, PC3; type: cell-based; conditions: PC3, 72 hours; control 0.50
Procedure: (§3) The Cell Apoptosis ELISA Detection Kit (Roche, Palo Alto, Calif.) was used to detect apoptosis in COLO357 cells, with different treatments according to the manufacturer's protocol. Briefly, COLO357 cells were treated with […] of Compound 1 and Compound 2 for 72 hours. After treatment, the cytoplasmic histone DNA fragments from COLO 357 cells with different treatments were extracted and bound to immobilized anti-histone antibody.
(§4) Subsequently, the peroxidase-conjugated anti-DNA antibody was used for the detection of immobilized histone DNA fragments. After addition of substrate for peroxidase, the spectrophotometric absorbance of the samples was determined using ULTRA Multifunctional Microplate Reader (TECAN) at 405 nm. A similar protocol was used for BxPC3, PC3 and HCT116 cell lines.

HCT116 = test: Quantification of apoptosis by ELISA, HCT116; type: cell-based; conditions: HCT116, 72 hours; control 0.35
Procedure: as §3, §4

PC3 (prostate cancer) = test: MTT cell growth inhibition assay, PC3; type: cell-based; conditions: PC3, 72 h; read-out: MTT Assay EC50 after 72 h
Procedure: as §1, §2

HCT116 (colon cancer) = test: MTT cell growth inhibition assay, HCT116; type: cell-based; conditions: HCT116, 72 h; read-out: MTT Assay EC50 after 72 h
Procedure: as §1, §2

Akt = Akt assay (ELISA based activity kit); type: biochemical
Procedure: Akt activity kit is an ELISA based activity kit that utilizes biotinylated peptide substrate (GRPRTSSFAEG) that is phosphorylated on second serine by Akt1, Akt2, Akt3, SGK and MSK1. Biotinylated Akt substrate and sample containing Akt are incubated in presence of ATP in the wells of a streptavidin coated 96-well plate, which allows for phosphorylation and substrate capture in a single step. The phosphorylated substrate is detected using phosphoserine detection antibody followed by HRP-antibody conjugate and color development with TMB substrate. Sensitivity is increased by addition of ELISA stop solution and relative activity is determined by reading dual absorbance at 450/540 nm or 450/595 nm. Inhibition profiles can be generated based on Akt activity in the presence and absence of test inhibitor(s).

BxPC3 = test: Quantification of apoptosis by ELISA, BxPC3; type: cell-based; conditions: BxPC3, 25 mmol/L, 72 hours; control 0.50
Procedure: as §3, §4

COLO357 cells = test: Quantification of apoptosis by ELISA, COLO357; type: cell-based; conditions: COLO357, 72 hours; control 0.75
Procedure: as §3, §4

Row | Substance | EC50 [1] [µM] | EC50 [2] [µM] | O.D. Of Histone/DNA at 405 nm (PC3) | O.D. Of Histone/DNA at 405 nm (HCT116) | EC50 (PC3 (prostate cancer)) [µM] | EC50 (HCT116 (colon cancer)) [µM] | Akt inhibitory activity (Akt) | O.D. Of Histone/DNA at 405 nm (BxPC3) | O.D. Of Histone/DNA at 405 nm (COLO357 cells)
1 | Cu(II) complex of 2-amino-3-[(Z)—N′-(1H-indol-3-ylmethylidene)hydrazinecarbonyl]-propanoic acid [Compound 1] | 14.6 | 28.9 | 0.60 | 1.60 | 28.8 | 11.7 | micromolar range | 2.20 | 1.90
2 | Cu(II) complex of (2Z)-2-(N-hydroxyimino)-N′-[(1Z)-1H-indol-3-ylmethylidene]-1,3-dioxobutanehydrazide [Compound 2] | 14.3 | 18.9 | 1.90 | 1.75 | 16.6 | 14.1 | micromolar range | 1.80 | 2.00
